Biological target: T1, Abl Y393F (Mus musculus, UniProt P00520, Y393F)
T1 construct: 0.4 μg/ml Abl kinase domain; Met-Ser-Leu (vector-derived) (N); made in house
T1 sequence (P00520 242-493 Y393F limits assumed): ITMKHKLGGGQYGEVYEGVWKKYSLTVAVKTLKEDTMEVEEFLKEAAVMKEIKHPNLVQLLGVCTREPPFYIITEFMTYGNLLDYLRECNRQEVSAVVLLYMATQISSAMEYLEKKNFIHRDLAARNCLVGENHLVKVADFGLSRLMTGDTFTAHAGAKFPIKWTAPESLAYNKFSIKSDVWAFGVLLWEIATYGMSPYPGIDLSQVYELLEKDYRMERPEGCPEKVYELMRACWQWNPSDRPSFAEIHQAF
Assay: Abl Y393F kinase enzyme assay
Assay type: biochemical
Conditions: read-out: Abl_Y393F IC50
From the text: Although the first of these examples uses the kinase domain of a mutant form of Abl T315I (“Abl T315I KD”), the kinase assays may use various forms of mutant and wild type enzymes, including, for example, the entire protein, the kinase domain, or a portion thereof (e.g. Abl Y393F). The kinases used in the assays may also be of varying phosphorylation states. In the c-Abl example, a mutant kinase at a zero phosphorylation state was used.
In addition to the c-Abl PK/LDH coupled assay (above), homogeneous luminescence-based inhibitor screening assays were developed for c-Abl, MET, AurA, and PDK1 kinases (among others). Each of these assays made use of an ATP depletion assay (Kinase-Glo™, Promega Corporation, Madison, Wis.) to quantitate kinase activity. The Kinase-Glo™ format uses a thermostable luciferase to generate luminescent signal from ATP remaining in solution following the kinase reaction. The luminescent signal is inversely correlated with the amount of kinase activity.
cAbl Luminescence-Based Enzyme Assay
Materials: Abl substrate peptide=EAIYAAPFAKKK SEQ ID NO:1)-OH (Biopeptide, San Diego, Calif.), ATP (Sigma Cat#A-3377, FW=551), HEPES buffer, pH 7.5, Bovine serum albumin (BSA) (Roche 92423420), MgCl2, Staurosporine (Streptomyces sp. Sigma Cat#85660-1MG), white Costar 384-well flat-bottom plate (VWR Cat#29444-088), Abl kinase (see below), Kinase-Glo™ (Promega Cat#V6712).
Stock Solutions: 10 mM Abl substrate peptide (13.4 mg/ml in miliQH2O) stored at −20° C.; 100 mM HEPES buffer, pH 7.5 (5 ml 1M stock+45 ml miliQH2O); 10 mM ATP (5.51 mg/ml in dH2O) stored at −20° C. (diluted […] into total of 10 ml miliQH2O daily=50 μM ATP working stock); 1% BSA (1 g BSA in 100 ml 0.1 M HEPES, pH 7.5, stored at −20° C.), 100 mM MgCl2; 200 μM Staurosporine, 2× Kinase-Glo™ reagent (made fresh or stored at −20° C.).
Standard Assay Setup for 384-well format (20 μl kinase reaction, 40 μl detection reaction): 10 mM MgCl2; 100 μM Abl substrate peptide; 0.1% BSA; 1 μl test compound (in DMSO); 0.4 μg/ml Abl kinase domain; 10 μM ATP; 100 mM HEPES buffer. Positive controls contained DMSO with no test compound. Negative controls contained 10 μM staurosporine. The kinase reactions were initiated at time t=0 by the addition of ATP. Kinase reactions were incubated at 21° C. for 30 min, then 20 μl of Kinase-Glo™ reagent were added to each well to quench the kinase reaction and initiate the luminescence reaction. After a 20 min incubation at 21° C., the luminescence was detected in a plate-reading luminometer.

| SMILES | IC50 |
| --- | --- |
| COc1ccccc1-c1n[nH]c2ncc(Br)cc12 | < 1000 nM |
| c1ccc(-c2n[nH]c3ncc(-c4ccc5[nH]ccc5c4)cc23)cc1 | < 1000 nM |
| Oc1cccc(-c2cnc3[nH]nc(-c4ccccc4)c3c2)c1 | < 1000 nM |
| c1ccc(-c2n[nH]c3ncc(-c4cccnc4)cc23)cc1 | < 1000 nM |
| COc1ccccc1-c1n[nH]c2ncc(-c3cccnc3)cc12 | < 1000 nM |
| COc1ccccc1-c1n[nH]c2ncc(-c3cccc(C(=O)N(C)C)c3)cc12 | < 1000 nM |
| COc1ccccc1-c1n[nH]c2ncc(-c3ccc(O)c(C(=O)N4CCOCC4)c3)cc12 | < 1000 nM |
| CCOc1ccccc1-c1n[nH]c2ncc(-c3cccc(C(=O)N4CCOCC4)c3)cc12 | < 1000 nM |
| COc1ncc(-c2n[nH]c3ncc(-c4cccc(C(=O)N5CCOCC5)c4)cc23)c(OC)n1 | < 1000 nM |
| COc1ccccc1-c1cnc2[nH]nc(-c3ccccc3OC)c2c1 | < 1000 nM |
| COc1ccccc1-c1n[nH]c2ncc(-c3cccc(C(=O)NC(C)C)c3)cc12 | < 1000 nM |
| O=C(c1cccc(-c2cnc3[nH]nc(-c4ccc5cc[nH]c5c4)c3c2)c1)N1CCOCC1 | < 1000 nM |
| COc1ccccc1-c1n[nH]c2ncc(-c3cccc(C(=O)N4CCN(C)CC4)c3)cc12 | < 1000 nM |
| CCc1ccccc1-c1n[nH]c2ncc(-c3cccc(C(=O)N4CCOCC4)c3)cc12 | < 1000 nM |
| Cc1cc(F)ccc1-c1n[nH]c2ncc(-c3cccc(C(=O)N4CCOCC4)c3)cc12 | < 1000 nM |
| COc1c(F)cccc1-c1n[nH]c2ncc(-c3cccc(C(=O)N4CCOCC4)c3)cc12 | < 1000 nM |
| Cc1ccsc1-c1n[nH]c2ncc(-c3cccc(C(=O)N4CCOCC4)c3)cc12 | < 1000 nM |

| SMILES | IC50 |
| --- | --- |
| COc1ccccc1-c1n[nH]c2ncc(-c3cccc(C(=O)N4CCC(CO)CC4)c3)cc12 | < 1000 nM |
| O=C(c1cccc(-c2cnc3[nH]nc(-c4cccc5cccnc45)c3c2)c1)N1CCOCC1 | < 1000 nM |
| Cn1ccc2cc(-c3n[nH]c4ncc(-c5cccc(C(=O)N6CCOCC6)c5)cc34)ccc21 | < 1000 nM |
| O=C(c1cccc(-c2cnc3[nH]nc(-c4ccncc4Cl)c3c2)c1)N1CCOCC1 | < 1000 nM |
| COc1ccccc1-c1n[nH]c2ncc(-c3cccc(C(=O)N4CCCC4)c3)cc12 | < 1000 nM |
| COc1ccccc1-c1n[nH]c2ncc(-c3ccc(C(=O)N4CCCC4)cc3)cc12 | < 1000 nM |
| COc1ccccc1-c1n[nH]c2ncc(-c3ccc(C(=O)NC4CC4)cc3)cc12 | < 1000 nM |
| COc1ccccc1-c1n[nH]c2ncc(-c3cnc4[nH]n(C)c(=O)c4c3)cc12 | < 1000 nM |
| COc1ccccc1-c1n[nH]c2ncc(-c3cccc(S(=O)(=O)NC4CC4)c3)cc12 | < 1000 nM |
| COc1ccccc1-c1n[nH]c2ncc(-c3cccc(C(=O)N4CCN(CCN(C)C)CC4)c3)cc12 | < 1000 nM |
| CCN1CCN(C(=O)c2cccc(-c3cnc4[nH]nc(-c5cc(F)ccc5OC)c4c3)c2)CC1 | < 1000 nM |
| COc1cc(-c2cnc3[nH]cc(-c4ccc(C)cc4)c3n2)ccc1O | < 1000 nM |
| COc1ccccc1-c1n[nH]c2ncc(-c3ccc(C(=O)N4CCN(C)CC4)cc3)cc12 | < 1000 nM |
| COc1cc(-c2cnc3[nH]nc(-c4ccccc4)c3c2)ccc1O | < 1000 nM |
| COc1ccccc1-c1n[nH]c2ncc(-c3ccc(C(=O)N4CCCCC4)cc3)cc12 | 1000 to 10000 nM |
| COc1ccccc1-c1n[nH]c2ncc(-c3ccc(C(=O)N4CCOCC4)cc3)cc12 | < 1000 nM |
| COc1ccccc1-c1c[nH]c2ncc(-c3cccc(C(=O)N(C)C)c3)nc12 | < 1000 nM |

— US7626021B2, “Fused ring heterocycle kinase modulators” (SGX Pharmaceuticals, Inc., priority 2004, dated 2009)
